Laboratory results published in PubChem BioAssay (NCI).
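Dose response: 5 concentrations. Exposure: 48 h. Format: 96-well plates. Endpoint: linear interpolation; highest concentration if not reached. At the GI50, growth is halved. At the TGI there is no net growth.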

Legend:
Experiment in all cases: inhibition of tumour cell growth, NCI panel, 48 h
DU-145 prostate = system: DU-145 prostate
EKVX NSCLC = system: EKVX NSCLC
HL-60(TB) leukemia = system: HL-60(TB) leukemia
M14 melanoma = system: M14 melanoma
MCF7 breast = system: MCF7 breast
MDA-MB-231 breast = system: MDA-MB-231 breast
NCI-H522 lung = system: NCI-H522 lung
NCI/ADR-RES ovarian = system: NCI/ADR-RES ovarian
UACC-257 melanoma = system: UACC-257 melanoma
BT-549 breast = system: BT-549 breast
SK-OV-3 ovarian = system: SK-OV-3 ovarian

SMILES | TGI (DU-145 prostate) | TGI (EKVX NSCLC) | TGI (HL-60(TB) leukemia) | TGI (M14 melanoma) | TGI (MCF7 breast) | TGI (MDA-MB-231 breast) | TGI (NCI-H522 lung) | TGI (NCI/ADR-RES ovarian) | TGI (UACC-257 melanoma) | TGI (BT-549 breast) | TGI (SK-OV-3 ovarian) | GI50 (BT-549 breast) | GI50 (DU-145 prostate) | GI50 (EKVX NSCLC) | GI50 (HL-60(TB) leukemia) | GI50 (MDA-MB-231 breast) | GI50 (NCI-H522 lung) | GI50 (NCI/ADR-RES ovarian) | GI50 (SK-OV-3 ovarian) | GI50 (UACC-257 melanoma)
CCOP(=O)(COCCn1nc(Br)c(=O)[nH]c1=O)OCC | > 100 µM | > 100 µM | > 100 µM | > 100 µM | > 100 µM | > 100 µM | > 100 µM | > 100 µM | > 100 µM | – | – | – | – | – | – | – | – | – | – | –
O=C1C=CC(=O)c2c(O)c(N3CCN(c4ncccn4)CC3)c(Cl)c(O)c21 | 12.9 µM | 24.8 µM | 0.766 µM | 3.45 µM | 3.32 µM | 3.75 µM | 4.42 µM | 8.69 µM | 3.45 µM | 3.86 µM | 38.6 µM | – | – | – | – | – | – | – | – | –
CN(C)C(=O)/N=C1\SC(=Nc2ccccc2)C(=Nc2ccccc2)N1c1ccc([N+](=O)[O-])cc1 | > 100 µM | – | > 100 µM | > 100 µM | > 100 µM | > 100 µM | > 100 µM | > 100 µM | – | > 100 µM | > 100 µM | – | – | – | – | – | – | – | – | –
O=c1[nH]nc(-c2ccc([N+](=O)[O-])cc2)[nH]1 | > 100 µM | > 100 µM | > 100 µM | > 100 µM | > 100 µM | – | > 100 µM | > 100 µM | > 100 µM | > 100 µM | – | – | – | – | – | – | – | – | – | –
CSc1ncnc2c1cnn2Cc1cn(COCC(O)CO)nn1 (centres undefined) | > 100 µM | > 100 µM | > 100 µM | > 100 µM | > 100 µM | > 100 µM | 44.6 µM | > 100 µM | > 100 µM | > 100 µM | > 100 µM | – | – | – | – | – | – | – | – | –
OC(CCN1CCN(CCOC(c2ccc(F)cc2)c2ccc(F)cc2)CC1)c1ccc(Br)cc1 (centres undefined) | 17.4 µM | 17.7 µM | 11.2 µM | 3.86 µM | 9.85 µM | 19.9 µM | 16.4 µM | 7.67 µM | 4.61 µM | 12.5 µM | 19.8 µM | – | – | – | – | – | – | – | – | –
O=C1c2cc3c(cc2-c2c1c1cc(F)c(F)cc1c(=O)n2C[C@H](O)CO)OCO3 | > 100 µM | 8.77 µM | > 100 µM | – | – | 3.18 µM | 0.48 µM | 0.468 µM | 0.593 µM | 2.22 µM | 0.641 µM | 0.0727 µM | 0.0407 µM | 0.652 µM | 0.0426 µM | 0.378 µM | 0.0232 µM | 0.0396 µM | 0.0481 µM | 0.143 µM
Cc1ccc(S(=O)(=O)N2CCc3cc(O)c([N+](=O)[O-])cc32)cc1 | > 100 µM | – | > 100 µM | > 100 µM | > 100 µM | > 100 µM | > 100 µM | > 100 µM | > 100 µM | > 100 µM | > 100 µM | – | – | – | – | – | – | – | – | –
CCC(C)C(NC(=O)C(CCCC[N+](=N)N)NC(=O)C(CCCC[N+](=N)N)NC(=O)c1ccc(OC)cc1)C(=O)NC(CCCC[N+](=N)N)C(=O)N1CCCC1C(=O)NC(CCCCN)C(=O)NC(CC(C)C)C(N)=O (centres undefined) | > 100 µM | > 100 µM | – | > 100 µM | > 100 µM | > 100 µM | > 100 µM | > 100 µM | > 100 µM | > 100 µM | > 100 µM | – | – | – | – | – | – | – | – | –
CCCCCc1cc(CCCC)sc1-c1ccco1 | > 100 µM | > 100 µM | 58.8 µM | > 100 µM | > 100 µM | > 100 µM | > 100 µM | > 100 µM | > 100 µM | > 100 µM | > 100 µM | – | – | – | – | – | – | – | – | –
N#Cc1ccnc(C(=O)N2CCCC2C(=O)O)c1 (centres undefined) | > 100 µM | > 100 µM | > 100 µM | > 100 µM | > 100 µM | > 100 µM | > 100 µM | > 100 µM | > 100 µM | > 100 µM | – | – | – | – | – | – | – | – | – | –
CCOP(=O)(CC1OC(CO)C(O)C1O)OCC (centres undefined) | > 100 µM | > 100 µM | > 100 µM | > 100 µM | > 100 µM | > 100 µM | > 100 µM | – | > 100 µM | > 100 µM | > 100 µM | – | – | – | – | – | – | – | – | –
CC1=NN(c2cccc(Cl)c2)C2(C1=Cc1ccc(N(C)C)cc1)C(Cl)C(=O)N2c1nc2ccccc2s1 (centres undefined) | > 100 µM | > 100 µM | > 100 µM | > 100 µM | > 100 µM | > 100 µM | 43.1 µM | > 100 µM | > 100 µM | – | > 100 µM | – | – | – | – | – | – | – | – | –
O=c1ccn([C@@H]2C=C(CO)[C@@H](O)[C@H]2O)c(=O)[nH]1 | – | – | > 625 µM | – | > 625 µM | – | > 625 µM | > 625 µM | – | – | > 625 µM | – | – | – | – | – | – | – | – | –
CCOC(=O)c1c(-c2ccc(OC)cc2)c(C#N)c(=S)n(C2OC(CO)C(O)C(O)C2O)c1C (centres undefined) | > 100 µM | > 100 µM | > 100 µM | > 100 µM | > 100 µM | > 100 µM | > 100 µM | > 100 µM | > 100 µM | – | > 100 µM | – | – | – | – | – | – | – | – | –
COC(=O)c1ccc2cc(O)ccc2c1 | > 100 µM | > 100 µM | – | > 100 µM | > 100 µM | > 100 µM | > 100 µM | > 100 µM | > 100 µM | > 100 µM | > 100 µM | – | – | – | – | – | – | – | – | –
CC1=[N+]([O-])C2(CCCC2)N(O)C1(C)C | > 100 µM | > 100 µM | > 100 µM | > 100 µM | > 100 µM | > 100 µM | – | > 100 µM | > 100 µM | – | > 100 µM | – | – | – | – | – | – | – | – | –
O=c1cccc2n1CC1CNCC2C1 (centres undefined) | > 100 µM | > 100 µM | > 100 µM | > 100 µM | > 100 µM | > 100 µM | – | > 100 µM | > 100 µM | > 100 µM | > 100 µM | – | – | – | – | – | – | – | – | –
O=C(/C=C/CC(O)(c1ccccc1)c1ccccc1)Nc1ccccc1Cl | – | > 100 µM | > 100 µM | > 100 µM | – | – | > 100 µM | – | > 100 µM | – | > 100 µM | – | – | – | – | – | – | – | – | –
COc1ccc(CCn2ccc(=O)c(O)c2C)cc1OC | 43 µM | > 100 µM | 81.9 µM | 36.7 µM | 61.5 µM | 6.2 µM | – | 57.9 µM | 31 µM | > 100 µM | > 100 µM | – | – | – | – | – | – | – | – | –
